Experimental data: patent publication US11702404B2, “GLP-1R modulating compounds” (priority 2019, dated 2023)

Tests used:
[1] = Microsomal stability, human liver microsomes (predicted hepatic clearance); conditions: predicted from in vitro microsomal stability data
GLP-1R = GLP-1R (Homo sapiens, UniProt P43220); experiment: GLP-1R activation: cAMP increase in CHO cells stably expressing GLP-1R; type: cell-based; conditions: cAMP increase, CHO cells stably expressing GLP-1R, 10 point dose response, 30 minutes incubation; read-out: EC50
Chain of GLP-1R (P43220 24-463): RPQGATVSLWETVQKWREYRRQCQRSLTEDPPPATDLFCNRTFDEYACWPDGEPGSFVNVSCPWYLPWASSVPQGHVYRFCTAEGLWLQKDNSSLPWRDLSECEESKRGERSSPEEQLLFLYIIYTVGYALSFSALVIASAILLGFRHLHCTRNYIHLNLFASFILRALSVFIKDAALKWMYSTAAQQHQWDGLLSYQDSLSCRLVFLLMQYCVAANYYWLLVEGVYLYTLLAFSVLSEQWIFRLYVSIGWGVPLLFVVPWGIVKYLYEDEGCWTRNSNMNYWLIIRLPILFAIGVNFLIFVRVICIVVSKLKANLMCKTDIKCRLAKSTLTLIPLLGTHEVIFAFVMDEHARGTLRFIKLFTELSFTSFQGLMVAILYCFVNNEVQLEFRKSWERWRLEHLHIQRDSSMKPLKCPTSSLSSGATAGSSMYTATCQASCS

COCCn1c(Cc2cc(F)c(-c3ccnc(OCc4ccc(C#N)cc4F)n3)cc2F)nc2c(F)cc(C(=O)O)cc21 [Example 280, 2-(4-(2-((4-cyano-2-fluorobenzyl)oxy)pyrimidin-4-yl)-2,5-difluorobenzyl)-4-fluoro-1-(2-methoxyethyl)-1H-benzo[d]imidazole-6-carboxylic acid]
Predicted Hepatic Clearance (Pred. Cl.) [1]: 4 mL/min/kg | EC50 (GLP-1R): 0.62 nM

Cc1cc(Cn2c(Cc3ccc(-c4cccc(OCc5ccc(C#N)cc5F)n4)cc3F)nc3ccc(C(=O)O)cc32)no1 [Example 606]
Predicted Hepatic Clearance (Pred. Cl.) [1]: 1.83 mL/min/kg | EC50 (GLP-1R): 178 nM

COCCn1c(Cc2cc(F)c(-c3cccc(OCc4ccc(C#N)cc4F)n3)cc2F)nc2ccc(C(=O)O)nc21 [Example 208, 2-(4-(6-((4-cyano-2-fluorobenzyl)oxy)pyridin-2-yl)-2,5-difluorobenzyl)-3-(2-methoxyethyl)-3H-imidazo[4,5-b]pyridine-5-carboxylic acid]
Predicted Hepatic Clearance (Pred. Cl.) [1]: 3.83 mL/min/kg | EC50 (GLP-1R): 4.67 nM

COCCn1c(Cc2ccc(-c3cccc(OCc4cccc5c4OCCO5)n3)cc2F)nc2ccc(C(=O)O)cc21 [Example 348, 2-(4-(6-((2,3-dihydrobenzo[b][1,4]dioxin-5-yl)methoxy)pyridin-2-yl)-2-fluorobenzyl)-1-(2-methoxyethyl)-1H-benzo[d]imidazole-6-carboxylic acid]
Predicted Hepatic Clearance (Pred. Cl.) [1]: 9.5 mL/min/kg | EC50 (GLP-1R): 48.1 nM

COCCn1c(Cc2cc(F)c(-c3cccc(OCc4ccc(C(F)F)nc4)n3)cc2F)nc2ccc(C(=O)O)cc21 [Example 860]
Predicted Hepatic Clearance (Pred. Cl.) [1]: 1.83 mL/min/kg | EC50 (GLP-1R): 22.6 nM

CCn1cnnc1Cn1c(Cc2ccc(-c3cccc(OCc4ccc(C#N)cc4F)n3)cc2F)nc2ccc(C(=O)O)cc21 [Example 404, 2-(4-(6-((4-cyano-2-fluorobenzyl)oxy)pyridin-2-yl)-2-fluorobenzyl)-1-((4-ethyl-4H-1,2,4-triazol-3-yl)methyl)-1H-benzo[d]imidazole-6-carboxylic acid]
Predicted Hepatic Clearance (Pred. Cl.) [1]: <1.83 mL/min/kg | EC50 (GLP-1R): 1.71 nM

COCCn1c(Cc2ccc(-c3cccc(OCc4ccc(C#N)cc4F)n3)cc2OC(F)(F)F)nc2ccc(C(=O)O)cc21 [Example 40, 2-(4-(6-((4-cyano-2-fluorobenzyl)oxy)pyridin-2-yl)-2-(trifluoromethoxy)benzyl)-1-(2-methoxyethyl)-1H-benzo[d]imidazole-6-carboxylic acid]
Predicted Hepatic Clearance (Pred. Cl.) [1]: <1.83 mL/min/kg | EC50 (GLP-1R): 456 nM

O=C(O)c1ccc2nc(Cc3cc(F)c(-c4cccc(OCc5ccc(Cl)nc5OC(F)F)n4)cc3F)n(C[C@@H]3CCO3)c2c1 [Example 759]
Predicted Hepatic Clearance (Pred. Cl.) [1]: 1.83 mL/min/kg | EC50 (GLP-1R): 0.64 nM

N#CCC1(Cn2c(Cc3ccc(-c4ccc(F)c(OCc5ccc(C#N)cc5F)n4)c(F)c3)nc3ccc(C(=O)O)cc32)CC1 [Example 95, 2-(4-(6-((4-cyano-2-fluorobenzyl)oxy)-5-fluoropyridin-2-yl)-3-fluorobenzyl)-1-((1-(cyanomethyl)cyclopropyl)methyl)-1H-benzo[d]imidazole-6-carboxylic]
Predicted Hepatic Clearance (Pred. Cl.) [1]: 6.7 mL/min/kg | EC50 (GLP-1R): 0.26 nM

N#CCC1(Cn2c(Cc3ccc(-c4ccc(F)c(OCc5ccc(C#N)cc5F)n4)cc3F)nc3c(F)cc(C(=O)O)cc32)CC1 [Example 165, 2-(4-(6-((4-cyano-2-fluorobenzyl)oxy)-5-fluoropyridin-2-yl)-2-fluorobenzyl)-1-((1-(cyanomethyl)cyclopropyl)methyl)-4-fluoro-1H-benzo[d]imidazole-6-carboxylic acid]
Predicted Hepatic Clearance (Pred. Cl.) [1]: 4 mL/min/kg | EC50 (GLP-1R): 0.01 nM

COCCn1c(Cc2ccc(-c3cccc(OCc4ccc(C#N)cc4F)n3)cc2F)nc2cc(F)c(C(=O)O)cc21 [Example 207, 2-(4-(6-((4-cyano-2-fluorobenzyl)oxy)pyridin-2-yl)-2-fluorobenzyl)-5-fluoro-1-(2-methoxyethyl)-1H-benzo[d]imidazole-6-carboxylic acid]
Predicted Hepatic Clearance (Pred. Cl.) [1]: 6 mL/min/kg | EC50 (GLP-1R): 35.2 nM

COCCn1c(Cc2cc(F)c(-c3cccc(OCc4ccc(C(F)F)cc4)n3)cc2F)nc2ccc(C(=O)O)cc21 [Example 809]
Predicted Hepatic Clearance (Pred. Cl.) [1]: 2.83 mL/min/kg | EC50 (GLP-1R): 1.05 nM

COc1cc(Cl)ncc1COc1cccc(-c2cc(F)c(Cc3nc4ccc(C(=O)O)cc4n3C[C@@H]3CCO3)cc2F)n1 [Example 853]
Predicted Hepatic Clearance (Pred. Cl.) [1]: 9 mL/min/kg | EC50 (GLP-1R): 0.15 nM

COCCn1c(Cc2ccc(-c3cccc(OCc4ncc(Cl)s4)n3)cc2F)nc2ccc(C(=O)O)cc21 [Example 592, 2-(4-(6-((5-chlorothiazol-2-yl)methoxy)pyridin-2-yl)-2-fluorobenzyl)-1-(2-methoxyethyl)-1H-benzo[d]imidazole-6-carboxylic acid]
Predicted Hepatic Clearance (Pred. Cl.) [1]: 12 mL/min/kg | EC50 (GLP-1R): 33.3 nM

COCCn1c(Cc2cc(F)c(-c3cccc(OCc4cc(F)c(C#N)cc4F)n3)cc2F)nc2ccc(C(=O)O)cc21 [Example 565, 2-(4-(6-((4-cyano-2,5-difluorobenzyl)oxy)pyridin-2-yl)-2,5-difluorobenzyl)-1-(2-methoxyethyl)-1H-benzo[d]imidazole-6-carboxylic acid]
Predicted Hepatic Clearance (Pred. Cl.) [1]: 6 mL/min/kg | EC50 (GLP-1R): 4.91 nM

COCCn1c(Cc2cc(F)c(-c3cccc(OCc4cnc(C(F)(F)F)s4)n3)cc2F)nc2ccc(C(=O)O)cc21 [Example 862]
Predicted Hepatic Clearance (Pred. Cl.) [1]: 4.33 mL/min/kg | EC50 (GLP-1R): 16.2 nM

N#Cc1ccc(COc2cccc(-c3cc(F)c(Cc4nc5ccc(C(=O)O)cc5n4CC45CC(C#N)(CO4)C5)cc3F)n2)c(F)c1 [Example 575, 2-(4-(6-((4-cyano-2-fluorobenzyl)oxy)pyridin-2-yl)-2,5-difluorobenzyl)-1-((4-cyano-2-oxabicyclo[2.1.1]hexan-1-yl)methyl)-1H-benzo[d]imidazole-6-carboxylic acid]
Predicted Hepatic Clearance (Pred. Cl.) [1]: 8.67 mL/min/kg | EC50 (GLP-1R): 37.2 nM

COCCn1c(Cc2ccc(-n3ccc(OCc4ccccc4)n3)cc2F)nc2ccc(C(=O)O)cc21 [Example 89, 2-(4-(3-(benzyloxy)-1H-pyrazol-1-yl)-2-fluorobenzyl)-1-(2-methoxyethyl)-1H-benzo[d]imidazole-6-carboxylic acid]
Predicted Hepatic Clearance (Pred. Cl.) [1]: 8.83 mL/min/kg | EC50 (GLP-1R): 1650 nM

COCCn1c(Cc2cc(F)c(-c3cccc(OCc4csc(Cl)c4)n3)cc2F)nc2ccc(C(=O)O)cc21 [Example 692]
Predicted Hepatic Clearance (Pred. Cl.) [1]: 1.83 mL/min/kg | EC50 (GLP-1R): 12.3 nM

N#Cc1ccc(COc2cccc(-c3ccc(Cc4nc5ccc(C(=O)O)cc5n4CCOC(F)(F)F)c(F)c3)n2)c(F)c1 [Example 323, 2-(4-(6-((4-cyano-2-fluorobenzyl)oxy)pyridin-2-yl)-2-fluorobenzyl)-1-(2-(trifluoromethoxy)ethyl)-1H-benzo[d]imidazole-6-carboxylic acid]
Predicted Hepatic Clearance (Pred. Cl.) [1]: 4.33 mL/min/kg | EC50 (GLP-1R): 27.5 nM

COCCn1c(Cc2ccc(-c3cccc(OCc4ccc(C#N)cc4F)n3)cc2-c2ccsc2)nc2ccc(C(=O)O)cc21 [Example 176, 2-(4-(6-((4-cyano-2-fluorobenzyl)oxy)pyridin-2-yl)-2-(thiophen-3-yl)benzyl)-1-(2-methoxyethyl)-1H-benzo[d]imidazole-6-carboxylic acid]
Predicted Hepatic Clearance (Pred. Cl.) [1]: <1.83 mL/min/kg | EC50 (GLP-1R): 273 nM
